# Peptide text beside a SMILES is read from it. * marks the point of attachment. Cbz = O=C(OCc1ccccc1)*; CH2F = FC*
# B1: baculovirus p35: 35-kilodalton protein encoded by Autographa californica nuclear polyhedrosis virus, expressed from pDC409-p35 (protein, UniProt P08160 1-299, looked up)
# Early 35 kDa protein: MCVIFPVEIDVSQTIIRDCQVDKQTRELVYINKIMNTQLTKPVLMMFNISGPIRSVTRKNNNLRDRIKSKVDEQFDQLERDYSDQMDGFHDSIKYFKDEHYSVSCQNGSVLKSKFAKILKSHDYTDKKSIEAYEKYCLPKLVDERNDYYVAVCVLKPGFENGSNQVLSFEYNPIGNKVIVPFAHEINDTGLYEYDVVAYVDSVQFDGEQFEEFVQSLILPSSFKNSEKVLYYNEASKNKSMIYKALEFTTESSWGKSEKYNWKIFCNGFIYDKKSKVLYVKLHNVTSALNKNVILNTIK
# Key:
# [1] = test system: CV-1/EBNA cells expressing TRAIL-R; experiment: TRAIL-R-induced death of transfected CV-1/EBNA cells (lacZ co-transfection, X-gal staining); type: cell-based, African green monkey; conditions: 48 hours after transfection
# Procedure: CV-1/EBNA cells were transfected, by the DEAE-dextran method, with expression plasmids for TRAIL-R (pDC409-TRAIL-R), together with a threefold excess of empty expression vector (pDC409) in the presence or absence of z-VAD-fmk (10 μM; in the culture medium), or together with a threefold excess of expression vector pDC409-CrmA, pDC409-p35, or pDC409-FADD-DN. In addition, 400 ng/slide of an expression vector for the E. coli lacz gene was co-transfected together with all DNA mixes. The transfected cells were cultured in chambers mounted on slides.
# 48 hours after transfection, cells were washed with PBS, fixed with glutaraldehyde and incubated with X-gal (5-bromo-4-chloro-3-indoxyl-β-D-galactopyranoside). Cells expressing β-galactosidase stain blue. A decrease in the percentage of stained cells indicates loss of β-galactosidase expression, and correlates with death of cells that express the protein(s) co-transfected with the lacz gene.
# [2] = test system: TRAIL-induced apoptosis of Jurkat cells; experiment: Blocking of TRAIL-induced apoptosis of Jurkat cells (MTT cell viability assay); type: cell-based, human; conditions: LZ-TRAIL 13 ng/ml, test substance serially diluted from 10 μg/ml
# Procedure: TRAIL-R was tested for the ability to block TRAIL-induced apoptosis of Jurkat cells. The TRAIL-R employed in the assay was in the form of a fusion protein designated sTRAIL-R/Fc, which comprised the extracellular domain of human TRAIL-R, fused to the N-terminus of an Fc polypeptide derived from human IgG1.
# A fusion protein designated TNF-R2—Fc, employed as a control, comprised the extracellular domain of the TNF receptor protein known as p75 or p80 TNF-R (Smith et al., Science 248:1019-1023, 1990; Smith et al. Cell 76:959-962, 1994), fused to an Fc polypeptide. A mouse monoclonal antibody that is a blocking antibody directed against human TRAIL, was employed in the assay as well.
# Jurkat cells were incubated with varying or constant concentrations of LZ-TRAIL (the LZ-TRAIL fusion protein described in example 6), in the absence or presence of varying concentrations of sTRAIL-R-Fc, TNF-R2-Fc, or the TRAIL-specific monoclonal antibody. Cell death was quantitated using an MTT cell viability assay (MTT is 3-[4,5-dimethylthiazol-2-yl]-2,5-diphenyltetrazolium bromide), as previously described (Mosmann, J. Immunol. Methods 65:55-63, 1983). […]
# [3] = molecular target: T1, full length human TRAIL-R (Homo sapiens, UniProt O14763, V191A); experiment: FACS binding assay of LZ-TRAIL to CV-1/EBNA cells expressing recombinant TRAIL-R; conditions: LZ-TRAIL 5 μg/ml; cells co-transfected with TRAIL-R and CrmA vectors compared to CrmA vector alone; 48 hours after transfection
# T1 construct: expressed in transfected cells; host or cells: CV-1/EBNA cells, co-transfected with pDC409-CrmA
# Procedure: Full length human TRAIL-R was expressed and tested for the ability to bind TRAIL. The binding assay was conducted as follows.
# A fusion protein comprising a leucine zipper peptide fused to the N-terminus of a soluble TRAIL polypeptide (LZ-TRAIL) was employed in the assay. An expression construct was prepared, essentially as described for preparation of the Flag®-TRAIL expression construct in Wiley et al. (Immunity, 3:673-682, 1995; hereby incorporated by reference), except that DNA encoding the Flag® peptide was replaced with a sequence encoding a modified leucine zipper that allows for trimerization. The construct, in expression vector pDC409, encoded a leader sequence derived from human cytomegalovirus, followed by the leucine zipper moiety fused to the N-terminus of a soluble TRAIL polypeptide. The TRAIL polypeptide comprised amino acids 95-281 of human TRAIL (a fragment of the extracellular domain), as described in Wiley et al. (supra). […]
# CV-1/EBNA cells were co-transfected with pDC409-TRAIL-R together with pDC409-CrmA, or with pDC409-CrmA alone. […] 48 hours after transfection, cells were detached non-enzymatically and incubated with LZ-TRAIL (5 μg/ml), a biotinylated anti-LZ monoclonal antibody (5 μg/ml), and phycoerythrin-conjugated streptavidin (1:400), before analysis by fluorescence-activated cell scanning (FACS). […]
molecule,measurement,setting,value
"COC(=O)C[C@H](NC(=O)[C@H](C)NC(=O)[C@@H](NC(=O)OCc1ccccc1)C(C)C)C(=O)CF [z-VAD-fmk, benzyloxycarbonyl-Val-Ala-Asp-fluoromethylketone, reference compound] (Cbz-Val-Ala-Asp(OMe)-CH2F)",reduction of death of transfected cells expressing TRAIL-R,[1]; 10 μM in the culture medium,effectively reduced death
"sTRAIL-R/Fc: extracellular domain of human TRAIL-R, fused to the N-terminus of an Fc polypeptide derived from human IgG1",blocking of TRAIL-induced apoptosis (percent cell death),[2],blocked TRAIL-induced apoptosis in a dose dependent fashion
same,blocking of TRAIL-induced apoptosis (percent cell death),[2]; listed as soluble TRAIL-R/Fc fusion protein,blocked TRAIL-induced apoptosis
LZ-TRAIL: leucine zipper peptide fused to the N-terminus of a soluble TRAIL polypeptide (amino acids 95-281 of human TRAIL),binding of LZ-TRAIL to transfected cells,[3],significantly enhanced binding
B1,reduction of death of transfected cells expressing TRAIL-R,"[1]; co-transfected, threefold excess of expression vector",effectively reduced death

# From patent US7528239B1, “Receptor that binds trail” (Immunex Corporation, priority 1997, dated 2009)
